{
  "source": "patent US20210251999A1",
  "about": "“Treatment of Conditions Associated With Decreased Folate in Cerebral Spinal Fluid” (priority 2011, published 2021)",
  "type_in_all_cases": "in vivo, human",
  "key": {"[1]": {"experiment": "Cerebrospinal folate level in a patient with cerebrospinal folate deficiency (case report, Example 2)", "settings": "patient Example 2; folinic acid 5 mg twice per day; within approximately four months; rose from 32 L (preferred range 40-128)", "experimental": "Example 1 was tested for cerebrospinal folate deficiency approximately four months after Example 2's testing. […] Studies have shown that the earlier the anemias associated with cerebrospinal folate deficiency are addressed, the better the adversely impacted individual can overcome more long-term effects of the associated folate deficiency.\nAfter Example 2's diagnosis, Example 2 was placed on 5-methyltetrahydrofolate in the form of folinic acid (5 mg twice per day)."}, "[2]": {"experiment": "Clinical improvement of a patient with cerebrospinal folate deficiency (case report, Example 2)", "settings": "patient Example 2; after 5-methyltetrahydrofolate treatment (folinic acid 5 mg twice per day)", "experimental": "After Example 2's diagnosis, Example 2 was placed on 5-methyltetrahydrofolate in the form of folinic acid (5 mg twice per day). Within approximately four months, Example 2's cerebrospinal folate levels rose from 32 L (preferred range 40-128) to approximately 88 (above the midpoint of the range). […] Thus, reduced folates are critical."}, "[3]": {"experiment": "Hematological response (reticulocytes) in a hypothyroid neonate after vitamin B12 supplementation (case report, Example 1)", "settings": "patient Example 1 (neonate); additional nutritional supplement containing 2 mcg of vitamin B12", "excerpt": "In another example: a patient (later referred to as Example 1, and also a twin of Example 2) suffered from clinical signs of cerebrospinal folate deficiency at birth. Example 1 received infant milk formula that contained vitamin B12. […] It is noted that the multivitamin nutritional supplement was Poly-Vi-Sol. Example 2 received a version of Poly-Vi-Sol that was fortified with iron, but that contained no vitamin B12. It is further noted that neither the version of Poly-Vi-Sol (without the iron fortification) nor the Poly-Vi-Sol (with iron fortification) contained any folate. Thus, the disclosed subject matter addresses the need for Poly-Vi-Sol, and other vitamin supplements that are given to neonates, infants and toddlers, to contain the methods and compositions described herein.\nBoth Example 1 and Example 2 were treated for iron deficiencies with iron supplements. Example 1 and Example 2 received different nutritional supplementation with respect to vitamin B 12. Although Example 2 did receive the same infant milk formula that Example 1 received, which infant milk formula contained vitamin B 12, Example 2 received less of the infant milk formula than Example 1, and Example 2 received in lieu of the infant milk formula more of the breast milk from the hypothyroid […]. […]"}},
  "data": [
    {"compound": "Nc1nc2c(c(=O)[nH]1)N(C=O)C(CNc1ccc(C(=O)N[C@@H](CCC(=O)O)C(=O)O)cc1)CN2", "note": "(stereo partly drawn) [folinic acid, 6(R,S)-5-formyltetrahydrofolate]", "values": [
      {"measurement": "cerebrospinal folate levels", "setting": "[1]", "value": "approximately 88"},
      {"measurement": "physical, behavioral and social skills", "setting": "[2]", "value": "showed improvement in physical, behavioral and social skills"}
    ]},
    {"compound": "vitamin B 12", "values": [
      {"measurement": "hematological response: reticulocytes", "setting": "[3]", "value": "increase in reticulocytes, moving from below normal to normal"}
    ]}
  ]
}
